# Test results taken from patent US9593140B2, “Antibacterial tylosin derivatives and methods for their preparation” (Bayer Intellectual Property GmbH, priority 2011, dated 2017).
# Assays:
# Format in all cases: cell-based
# [1] = tested on: Mannhemia hemolytica KB345; assay: Paper disc assay, M. hemolytica KB345 (Tilmicosin-sensitivity strain); details: for zone of inhibition at 1 mg/disc: 1 mg/6 mm disk
# Experimental: (§1) (1) Antibacterial Activities Against Mannheimia and Pasteurella were Determined by the Following Steps:
# (§2) 1) M. hemolytica KB345 (Tilmicosin-sensitivity strain) and M. hemolytica KB346 (Tilmicosin-low sensitivity strain) were provided. KB 345 strain stored at −80° C. was seeded to BHIB agar medium (10 mL) by using Microbank beads (Pro-Lab) and platinum nail. After statically incubating the KB 345 strain for 24 hours at 37° C., it was seeded to maintaining slant BHIB agar medium (7 mL) by using platinum loop, further statically incubated for 24 hours at 37° C. to obtain slant. One platinum loop of KB 345 strain stored at the slant was inoculated into a large test tube charged with BHIB liquid medium (10 mL) and then incubated for 24 hours at 37° C. with shaking.
# (§3) 2) A paper disc (ADVANTEC, Φ:6 mm) was impregnated with a solution of test compound and dried under reduced pressure.
# (§4) 3) To a melted BHIB agar medium was inoculated 1% of the broth obtained from step 1) above to prepare a test plate. After the medium set, the paper disc prepared in step 2) above was put on the plate and it was incubated at 37° C.
# (§5) 4) After one day, the inhibition zone diameter and clarity (A to E) were determined.
# [2] = tested on: Bacillus subtilis ATCC6633; assay: Paper disc assay, Bacillus subtilis (S)
# Experimental: (§6) (2) Antibacterial activities against other bacteria were determined with Micrococcus luteus ATCC9341 (1), Bacillus subtilis […] (s), Escherichia coli NIHJ (c), Xanthomonas campestris KB88 (X), Mucor racemosus IFO 4581 (Mu) and Candida albicans ATCC 64548 (Ca).
# (§7) Bacillus subtilis ATCC6633 was incubated in Davis synthetic medium and then the seed broth was combined with the medium in the ratio of 1:99 to obtain a test plate. Micrococcus luteus ATCC9341, Escherichia coli NIHJ and Xanthomonas campestris KB88 were respectively incubated in Nutrient agar medium and inoculated at 0.2%, 0.5% and 1.0%. Mucor racemosus IFO 4581 and Candida albicans ATCC 64548 were respectively incubated in GY agar medium and then inoculated at 0.3% and 0.2%.
# (§8) A paper disc (ADVANTEC, Φ:6 mm) was impregnated with a solution of test compound and dried under reduced pressure. The paper disc was put on the test plate and it was incubated for 24 hours at 37° C. After incubation, the inhibition zone diameter and clarity (A to E) were determined.
# Escherichia coli NIHJ = assay: Paper disc assay, Escherichia coli (c)
# Experimental: as §6, §7, §8
# [3] = tested on: Xanthomonas campestris KB88; assay: Paper disc assay, Xanthomonas campestris (X)
# Experimental: as §6, §7, §8
# [4] = tested on: Micrococcus luteus ATCC9341; assay: Paper disc assay, Micrococcus luteus (l)
# Experimental: as §6, §7, §8
# [5] = tested on: Mannhemia hemolytica KB346; assay: Paper disc assay, M. hemolytica KB346 (Tilmicosin-low sensitivity strain)
# Experimental: as §1, §2, §3, §4, §5
# For KB346 strain, the same procedures were repeated.
# [6] = tested on: A. pleuropneumoniae, 6 isolates; assay: Minimal inhibitory concentrations, swine pathogen isolates
# Experimental: (§9) The antibacterial activity by the compounds of the present invention may be measured using a number of assays available in the art. […] Minimal inhibitory concentrations (MICs) were determined against the most prevalent pathogens in cattle (Mannheimia Haemolytica, 3 isolates) and swine (A. pleuropneumoniae, 6 isolates).The results are summarized in Table 7.
# [7] = tested on: Mannheimia Haemolytica, 3 isolates; assay: Minimal inhibitory concentrations, cattle pathogen isolates; details: for MIC: Mannheimia haemolytica
# Experimental: as §9
compound,measurement,setting,value
"CC[C@H]1OC(=O)C[C@@H](O)[C@H](C)[C@@H](O[C@@H]2O[C@H](C)[C@@H](O)C(N(C)C)C2O)[C@@H](CCN2CC(C)CC(C)C2)C[C@@H](C)C(=O)/C=C/C(C)=C/[C@@H]1CO[C@@H]1OC(C)[C@@H](O)[C@H](OC)C1OC (some centres unmarked) [Tilmicosin, reference compound]",zone of inhibition at 1 mg/disc,"[1]; 24 h, Table 2",10.7 mm
same,zone of inhibition at 3 mg/disc,"[1]; 24 h, Table 2, 3 mg/6 mm disk",13.5 mm
same,Inhibition zone (mm),[2]; 0.1 mg/6 mm disc,14 mm
same,Inhibition zone (mm),[2]; 1 mg/6 mm disc,11 mm
same,Inhibition zone (mm),[2]; 10 mg/6 mm disc,18 mm
same,Inhibition zone (mm),Escherichia coli NIHJ; 1 mg/6 mm disc,13 mm
same,Inhibition zone (mm),Escherichia coli NIHJ; 10 mg/6 mm disc,20 mm
same,Inhibition zone (mm),[3]; 0.1 mg/6 mm disc,12 mm
same,Inhibition zone (mm),[3]; 1 mg/6 mm disc,20 mm
same,Inhibition zone (mm),[3]; 10 mg/6 mm disc,30 mm
same,Inhibition zone (mm),[4]; 0.1 mg/6 mm disc,12 mm
same,Inhibition zone (mm),[4]; 1 mg/6 mm disc,19 mm
same,Inhibition zone (mm),[4]; 10 mg/6 mm disc,27.5 mm
"CCC1OC(=O)CC(O)C(C)C(OC2OC(C)C(O)C(N(C)C)C2O)C(CCN=[N+]=[N-])CC(C)C(=O)C=CC(C)=CC1COC1OC(C)C(O)C(OC)C1OC (centres unmarked) [YT11, 20-azido-20-deoxodesmycosin]",Inhibition zone (mm),"[1]; Table 2, 3 mg/6 mm disk",10.0 mm
same,Inhibition zone (mm),"[1]; Table 2, 10 mg/6 mm disk",13.0 mm
same,Inhibition zone (mm),"[1]; Table 2, 30 mg/6 mm disk",16.0 mm
same,Inhibition zone (mm),"[1]; Table 2, 100 mg/6 mm disk",18.0 mm
same,Inhibition zone (mm),"[5]; Table 3, 100 mg/6 mm disk",11.0 mm
"CC[C@H]1OC(=O)C[C@@H](O)[C@H](C)[C@@H](O[C@@H]2O[C@H](C)[C@@H](O)[C@H](N(C)C)[C@H]2O)[C@@H](CCn2cc(-c3ccsc3)nn2)C[C@@H](C)C(=O)/C=C/C(C)=C/[C@@H]1CO[C@@H]1O[C@H](C)[C@@H](O)[C@@H](OC)[C@H]1OC [YT14, 20-(4-(thiophene-3-yl)-1H-1,2,3-triazol-1-yl)-20-deoxodesmycosin]",zone of inhibition at 1 mg/disc,"[1]; 24 h, Table 2",11 mm
same,zone of inhibition at 3 mg/disc,"[1]; 24 h, Table 2, 3 mg/6 mm disk",14 mm
same,zone of inhibition at 10 mg/disc,"[1]; 24 h, Table 2, 10 mg/6 mm disk",16.5 mm
same,zone of inhibition at 30 mg/disc,"[1]; 24 h, Table 2, 30 mg/6 mm disk",19.5 mm
same,zone of inhibition at 100 mg/disc,"[1]; 24 h, Table 2, 100 mg/6 mm disk",22 mm
same,Inhibition zone (mm),[2]; 0.1 mg/6 mm disc,8 mm
same,Inhibition zone (mm),[2]; 1 mg/6 mm disc,11 mm
same,Inhibition zone (mm),[2]; 10 mg/6 mm disc,15 mm
same,Inhibition zone (mm),Escherichia coli NIHJ; 10 mg/6 mm disc,7 mm
same,Inhibition zone (mm),[3]; 0.1 mg/6 mm disc,7 mm
same,Inhibition zone (mm),[3]; 1 mg/6 mm disc,16 mm
same,Inhibition zone (mm),[3]; 10 mg/6 mm disc,22 mm
same,Inhibition zone (mm),[4]; 0.1 mg/6 mm disc,13.5 mm
same,Inhibition zone (mm),[4]; 1 mg/6 mm disc,20.5 mm
same,Inhibition zone (mm),[4]; 10 mg/6 mm disc,26.5 mm
"CC[C@H]1OC(=O)C[C@@H](O)[C@H](C)[C@@H](O[C@@H]2O[C@H](C)C(O)C(N(C)C)C2O)[C@@H](CC=O)C[C@@H](C)C(=O)/C=C/C(C)=C/[C@@H]1Cn1cc(-c2ccc(-c3ccccc3)cc2)nn1 (some centres unmarked) [YT104, 23-(4-biphenyl-1H-1,2,3-triazol-1-yl)-23-Deoxy-5-O-mycaminosyltylonolide]",MIC,"[6]; Actinobacillus pleuropneumoniae, pleuropneumoniae isolate 1",> 16 µg/mL
same,MICs,[6]; pleuropneumoniae isolate 2,>16 µg/mL
same,MICs,[6]; pleuropneumoniae isolate 3,>16 µg/mL
same,MICs,[6]; pleuropneumoniae isolate 4,>16 µg/mL
same,MICs,[6]; pleuropneumoniae isolate 5,>16 µg/mL
same,MICs,[6]; pleuropneumoniae isolate 6,>16 µg/mL
same,MIC,[7]; M. haemolytica isolate 1,8 µg/mL
same,MIC,[7]; M. haemolytica isolate 2,4 µg/mL
same,MIC,[7]; M. haemolytica isolate 3,8 µg/mL
"CC[C@H]1OC(=O)C[C@@H](O)[C@H](C)[C@@H](O[C@@H]2O[C@H](C)[C@@H](O)[C@H](N(C)C)[C@H]2O)[C@@H](CC=O)C[C@@H](C)C(=O)/C=C/C(C)=C/[C@@H]1CO [YT106, 5-O-mycaminosyltylonolide]",Inhibition zone (mm),"[1]; Table 4, 10 mg/6 mm disk",8.5 mm
same,Inhibition zone (mm),"[1]; Table 4, 30 mg/6 mm disk",12.5 mm
same,Inhibition zone (mm),"[1]; Table 4, 100 mg/6 mm disk",15.0 mm
same,Inhibition zone (mm),"[5]; Table 5, 10 mg/6 mm disk",9.0 mm
same,Inhibition zone (mm),"[5]; Table 5, 30 mg/6 mm disk",13.0 mm
same,Inhibition zone (mm),"[5]; Table 5, 100 mg/6 mm disk",17.0 mm
"CCC1OC(=O)CC(O)C(C)C(OC2OC(C)C(O)C(N(C)C)C2O)C(CC=O)CC(C)C(=O)C=CC(C)=CC1CN=[N+]=[N-] (centres unmarked) [YT107, 23-azido-23-deoxo-5-O-mycaminosyltylonolide]",Inhibition zone (mm),"[1]; Table 4, 3 mg/6 mm disk",12.0 mm
same,Inhibition zone (mm),"[1]; Table 4, 10 mg/6 mm disk",16.0 mm
same,Inhibition zone (mm),"[1]; Table 4, 30 mg/6 mm disk",18.0 mm
same,Inhibition zone (mm),"[1]; Table 4, 100 mg/6 mm disk",21.5 mm
same,Inhibition zone (mm),"[5]; Table 5, 30 mg/6 mm disk",10.5 mm
same,Inhibition zone (mm),"[5]; Table 5, 100 mg/6 mm disk",15.0 mm
"CC[C@H]1OC(=O)C[C@@H](O)[C@H](C)[C@@H](O[C@@H]2O[C@H](C)[C@@H](O)[C@H](N(C)C)[C@H]2O)[C@@H](CCn2cc(-c3ccccc3)nn2)C[C@@H](C)C(=O)/C=C/C(C)=C/[C@@H]1CO [YT112, 20-(4-phenyl-1H-1,2,3-triazol-1-yl)-20-deoxo-5-O-mycaminosyltylonolide]",Inhibition zone (mm),"[1]; Table 4, 3 mg/6 mm disk",17.0 mm
same,Inhibition zone (mm),"[1]; Table 4, 10 mg/6 mm disk",20.0 mm
same,Inhibition zone (mm),"[1]; Table 4, 30 mg/6 mm disk",25.0 mm
same,Inhibition zone (mm),"[1]; Table 4, 100 mg/6 mm disk",29.0 mm
same,MICs,[6]; pleuropneumoniae isolate 1,4 µg/mL
same,MICs,[6]; pleuropneumoniae isolate 2,4 µg/mL
same,MICs,[6]; pleuropneumoniae isolate 3,4 µg/mL
same,MICs,[6]; pleuropneumoniae isolate 4,8 µg/mL
same,MICs,[6]; pleuropneumoniae isolate 5,4 µg/mL
same,MICs,[6]; pleuropneumoniae isolate 6,8 µg/mL
same,Inhibition zone (mm),"[5]; Table 5, 100 mg/6 mm disk",11.5 mm
same,MICs,[7]; M. haemolytica isolate 1,8 µg/mL
same,MICs,[7]; M. haemolytica isolate 2,4 µg/mL
same,MICs,[7]; M. haemolytica isolate 3,8 µg/mL
